Common to all, as to type: in vivo
The test system of assay [1] is Alopecurus myosuroides. Nature of the assay: Pre-emergence herbicidal effect. As to conditions: visual score after 3 weeks. In a few lines: (§1)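 Seeds sown in sandy loam in wood-fibre pots and covered with soil; compounds as WP or EC applied as aqueous suspension/emulsion to the soil surface at 600 to 800 l/ha water with 0.2% wetting agent. Greenhouse growth; damage scored visually after 3 weeks versus untreated controls (0% = like control, 100% = dead).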

The test system of assay [2] is Echinochloa crus-galli. Nature of the assay: Pre-emergence herbicidal effect. As to conditions: visual score after 3 weeks. In short, it runs like this:
as §1

Assay [3] relates to Lolium multiflorum. Nature of the assay: Pre-emergence herbicidal effect. The following applies: visual score after 3 weeks. In short, it runs like this: as §1
Assay [4] deals with Setaria viridis. Nature of the assay: Pre-emergence herbicidal effect. The following applies: visual score after 3 weeks. In short, it runs like this:
as §1

Assay [5] concerns Alopecurus myosuroides. Nature of the assay: Post-emergence herbicidal effect. The following applies: visual assessment after about 3 weeks. In a few lines:
(§2)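 Greenhouse plants in sandy loam were sprayed at the one-leaf stage, 2 to 3 weeks after sowing, with WP or EC formulations at 600 to 800 l/ha water with 0.2% wetting agent. After about 3 weeks, action was scored visually as percent versus untreated controls (100% = plants died, 0% = like control).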

In assay [6] the test system is Avena fatua. Nature of the assay: Post-emergence herbicidal effect. As to conditions: 80 g/ha, visual assessment after about 3 weeks. In a few lines:
as §2

The test system of assay [7] is Echinochloa crus-galli. Nature of the assay: Post-emergence herbicidal effect. As to conditions: visual assessment after about 3 weeks. In a few lines: as §2
For assay [8], the system named is Lolium multiflorum. Nature of the assay: Post-emergence herbicidal effect. The following applies: visual assessment after about 3 weeks. In short, it runs like this: as §2
A further assay relates to Polygonum convolvulus. Nature of the assay: Post-emergence herbicidal effect. The following applies: 80 g/ha, visual assessment after about 3 weeks. In short, it runs like this: as §2
Assay [9] has as its system Setaria viridis. Nature of the assay: Post-emergence herbicidal effect. The following applies: visual assessment after about 3 weeks. In a few lines:
as §2

The subject of assay [10] is Avena fatua. Nature of the assay: Pre-emergence herbicidal effect. As to conditions: visual score after 3 weeks. In a few lines:
as §1

Assay [11] relates to Veronica persica. Nature of the assay: Pre-emergence herbicidal effect. As to conditions: 320 g/ha, visual score after 3 weeks. In a few lines:
as §1

Assay [12] deals with Veronica persica. Nature of the assay: Post-emergence herbicidal effect. As to conditions: 80 g/ha, visual assessment after about 3 weeks. In short, it runs like this:
as §2

As to `CCc1cc(C#CC2CC2)cc(C)c1C1=C(O)C2(CCC(COC)CC2)NC1=O` (stereo not shown) [Example I-7], the “Pre-emergence effectiveness ALOMY” value in the assay on Alopecurus myosuroides [1] (80 g/ha) turned out to be 80%; in the assay on Alopecurus myosuroides [1] (320 g/ha), 100%. For the same compound, the “Pre-emergence effectiveness ECHCG” value in the assay on Echinochloa crus-galli [2] (80 g/ha) and in the assay on Echinochloa crus-galli [2] (320 g/ha) was 100% in each case. Moreover, the “Pre-emergence effectiveness LOLMU” value in the assay with Lolium multiflorum [3] (80 g/ha) and in the assay with Lolium multiflorum [3] (320 g/ha) was 100% throughout. Moreover, the results for the “Pre-emergence effectiveness SETVI” value with Setaria viridis [4] (80 g/ha) and in the assay on Setaria viridis [4] (320 g/ha) were 90% and 100%, respectively. The “Post-emergence effectiveness ALOMY” value was 90% in the assay on Alopecurus myosuroides [5] (20 g/ha) and 100% in the assay on Alopecurus myosuroides [5] (80 g/ha). Besides, in the assay on Avena fatua [6], the “Post-emergence effectiveness AVEFA” value came out at 100%. The “Post-emergence effectiveness ECHCG” value with Echinochloa crus-galli [7] (20 g/ha) and with Echinochloa crus-galli [7] (80 g/ha) was 100% each time. For the same compound, the “Post-emergence effectiveness LOLMU” value amounted to 90% with Lolium multiflorum [8] (20 g/ha) and 100% in the assay on Lolium multiflorum [8] (80 g/ha). The “Post-emergence effectiveness POLCO” value in the assay with Polygonum convolvulus was 80%. In addition, the “Post-emergence effectiveness SETVI” value in the assay on Setaria viridis [9] (20 g/ha) and in the assay with Setaria viridis [9] (80 g/ha) was 100% in each case.

Consider `CC#Cc1cc(C)c(C2=C(OC(=O)C(C)C)C3(CCC(COC)CC3)NC2=O)c(CC)c1` (stereo not shown) [Ia-3], for which the figures for the “Pre-emergence effectiveness ALOMY” value in the assay on Alopecurus myosuroides [1] (80 g/ha) and in the assay on Alopecurus myosuroides [1] (320 g/ha) were 90% and 100%, respectively. Moreover, the entries for the “Pre-emergence effectiveness AVEFA” value in the assay on Avena fatua [10] (80 g/ha) and in the assay with Avena fatua [10] (320 g/ha) were 80% and 90%, respectively. For the same compound, the “Pre-emergence effectiveness ECHCG” value in the assay with Echinochloa crus-galli [2] (80 g/ha) and with Echinochloa crus-galli [2] (320 g/ha) was 100% each time. Also, the “Pre-emergence effectiveness LOLMU” value in the assay on Lolium multiflorum [3] (80 g/ha) and with Lolium multiflorum [3] (320 g/ha) was 100% in each case. Besides, the “Pre-emergence effectiveness SETVI” value in the assay with Setaria viridis [4] (80 g/ha) and in the assay with Setaria viridis [4] (320 g/ha) was 100% each time. Further, in the assay on Veronica persica [11], the “Pre-emergence effectiveness VERPE” value came out at 90%. In addition, the “Post-emergence effectiveness ALOMY” value was 90% in the assay on Alopecurus myosuroides [5] (20 g/ha) and 100% in the assay on Alopecurus myosuroides [5] (80 g/ha). Further, the “Post-emergence effectiveness ECHCG” value in the assay with Echinochloa crus-galli [7] (20 g/ha) is 90%; in the assay on Echinochloa crus-galli [7] (80 g/ha) it was 100%. Also, the “Post-emergence effectiveness LOLMU” value with Lolium multiflorum [8] (80 g/ha) amounted to 100%. For the same compound, the results for the “Post-emergence effectiveness SETVI” value in the assay with Setaria viridis [9] (20 g/ha) and in the assay on Setaria viridis [9] (80 g/ha) were 90% and 100%, respectively. For the same compound, in the assay with Veronica persica [12], the “Post-emergence action VERPE” value turned out to be 90%.

The values are drawn from US10899709B2, “Novel-alkynyl-substituted 3-phenylpyrrolidine-2,4-diones and use thereof as herbicides” (BAYER CROPSCIENCE AKTIENGESELLSCHAFT, priority 2015, dated 2021).
